Measurements from US9783545B2, “Pyrazolopyridazines and methods for treating retinal-degenerative diseases and hearing loss associated with usher syndrome” (Usher III Initiative, Inc., priority 2012, dated 2017).

Each compound was assayed against T1, N48K Clarin-1 (Homo sapiens, UniProt P58418, N48K) (assay: Restoration of expression of N48K Clarin-1, 24 hour incubation (high content imaging of HA-tagged N48K Clarin-1)). Settings: HEK293-Clarin-1 N48K-HA D9 cell line, 24 hr incubation with compound.
T1 construct: expressed in transfected cells
T1 sequence (P58418 1-232 N48K): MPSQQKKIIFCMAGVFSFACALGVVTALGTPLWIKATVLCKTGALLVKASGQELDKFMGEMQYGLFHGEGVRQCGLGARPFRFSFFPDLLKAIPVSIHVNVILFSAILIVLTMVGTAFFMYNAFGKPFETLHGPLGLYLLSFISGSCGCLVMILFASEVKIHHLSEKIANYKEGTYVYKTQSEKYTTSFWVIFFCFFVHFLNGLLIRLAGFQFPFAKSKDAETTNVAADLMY
Assay type: cell-based
Set-up: IC50: scale not given here
Experimental: Assay Method Showing Activity of Compounds of the Invention that Restore Expression of N48K Clarin-1 (24 hour incubation)
Clarin-1 is the protein encoded by the gene mutated in Usher III Syndrome (Adato et al., 2002). The most prevalent mutation in Clarin-1 in North America is N48K, which is reported to cause loss of glycosylation and a trafficking defect (Tian et al., 2009). […] Thus it is believed that restoring the trafficking of N48K Clarin-1 to the cell surface provides an avenue of intervention for Usher III Sydrome.
In a typical experiment, these cells were seeded on collagen-coated 96-well plates at a cell density of 20,000 cells per well in Dulbecco's Modified Eagle Medium (DMEM) contain 10% fetal bovine serum in a humidified incubator at 37° C., 5% CO2. After an overnight incubation, compounds were added for a 24 hr incubation in DMEM medium contain 10% fetal bovine serum in a humidified incubator at 37° C., 5% CO2. As a negative control, DMSO was used at 0.25% final concentrations. Compounds were typically tested in triplicate fashion. After the 24 hr incubation with compounds, the cells were fixed by the addition of 10% buffered formalin to the wells to achieve a final concentration of 4% formalin. After a 20 min fixation at room temperature, wells were washed three times with phosphate-buffered saline (PBS) containing Triton X-100 (0.02 phosphate, 150 mM NaCl, 0.1% Triton X-100).
The HA-tagged N48K Clarin-1 was detected with an antibody against the HA tag (HA.11 Clone 16B12 Monoclonal antibody, Covance #MMS-101P) at a dilution of 1:1000 in PBS containing Triton X-100. After a 90 min incubation, wells were washed three times with PBS containing Triton X-100, and a secondary antibody (Goat anti-mouse IgG-Cy3 (1.5 mg/ml), Jackson IR Europe #115165003) was added to the wells at a dilution of 1:250 in PBS containing Triton X-100 for 45 min. Wells were subsequently washed three times with PBS containing Triton X-100, and a final staining for nuclei was performed by the addition of DAPI (4′,6-diamidino-2-phenylindole) at a dilution of 1:10,000. The imaging of the stained cells was performed on an InCell 1000 High Content Imager (GE Healthcare), reading out the Cy3 channel for N48K Clarin-1 and the DAPI channel for nuclei. The images were analyzed and quantitated using a specific algorithm. This algorithm measured the HA-Clarin-1 staining for each cell based on the additional nuclear segmentation of the DAPI signal (FIG. 1). This algorithm measured the intensity per cell, and thus it is less sensitive for variation in cell number. Per well, approximately 2,000 cells were measured to achieve an average density per cell measurement. FIG. 1 illustrates high content analysis. DAPI-stained nuclei are used to perform segmentation of the image into individual cells. The density observed in the N48K Clarin-1 channel (Cy3) is then calculated per cell averaged over a field.

| IC50 | SMILES |
| --- | --- |
| A, B | OCCn1nc(C2CC2)c2c(Cl)c(-c3ccccc3)nnc21 [Iff, 2-(4-chloro-3-cyclopropyl-5-phenyl-pyrazolo[3,4-c]pyridazin-1-yl)ethanol] |

Same assay, conditions: HEK293-Clarin-1 N48K-HA D9 cell line, 24 hr incubation with compound; read-out: IC50 (the source's name)

| EC50 [nM] | SMILES |
| --- | --- |
| ≤ 2000 | FC(F)(F)Cn1nc(-c2ccccc2)c2c(Cl)c(-c3ccccc3)nnc21 [IIk, 4-chloro-3,5-diphenyl-1(2,2,2-trifluoroethyl)pyrazolo[3,4-c]pyridazine] |
| ≤ 2000 | CN1CCN(CCn2nc(-c3cccc(C(=O)N4CCCC4)c3)c3c(Cl)c(-c4ccccc4)nnc32)CC1 [Id, (3-(4-chloro-1-(2-(4-methylpiperazin-1-yl)ethyl)-5-phenyl-1H-pyrazolo[3,4-c]pyridazin-3-yl)phenyl)(pyrrolidin-1-yl)methanone] |
| 2000 to 5000 | CN(C)CCNC(=O)Cn1nc(-c2cccnc2)c2c(Cl)c(-c3ccccc3)nnc21 [Igg, 2-[4-chloro-5-phenyl-3-(3-pyridyl)pyrazolo[3,4-c]pyridazin-1-yl]-N-(2-dimethylaminoethyl)acetamide] |
| 2000 to 5000 | Cc1n[nH]c2nnc(-c3ccccc3)c(Cl)c12 [Iu, 4-chloro-3-methyl-5-phenyl-1H-pyrazolo[3,4-c]pyridazine] |
| ≤ 2000 | O=C(Cn1nc(C2=CCCC2)c2c(Cl)c(-c3ccccc3)nnc21)N1CCCC1 [In, 2-(4-chloro-3-(cyclopent-1-en-1-yl)-5-phenyl-1H-pyrazolo[3,4-c]pyridazin-1-yl)-1-(pyrrolidin-1-yl)ethanone] |
| 2000 to 5000 | Cc1nn(CC(=O)N2CCCC2)c2nnc(-c3ccccc3)c(Cl)c12 [Iw, 2-(4-chloro-3-methyl-5-phenyl-pyrazolo[3,4-c]pyridazin-1-yl)-1-pyrrolidin-1-yl-ethanone] |
| 2000 to 5000 | Cc1nn(C)c2nnc(-c3ccccc3)c(Br)c12 [Compound 23, 4-bromo-1,3-dimethyl-5-phenyl-pyrazolo[3,4-c]pyridazine] |
| ≤ 2000 | Clc1c(-c2ccccc2)nnc2c1c(-c1ccccc1)nn2Cc1ccccn1 [IIp, 4-chloro-3,5-diphenyl-1-(2-pyridylmethyl)pyrazolo[3,4-c]pyridazine] |
| ≤ 2000 | CN1CCN(CCn2nc(C3=CCOCC3)c3c(Cl)c(-c4ccccc4)nnc32)CC1 [If, 4-chloro-3-(3,6-dihydro-2H-pyran-4-yl)-1-(2-(4-methylpiperazin-1-yl)ethyl)-5-phenyl-1H-pyrazolo[3,4-c]pyridazine] |
| ≤ 2000 | CN1CCN(CCn2nc(-c3cc4ccccc4o3)c3c(Cl)c(-c4ccccc4)nnc32)CC1 [Ij, 3-(benzofuran-2-yl)-4-chloro-1-(2-(4-methylpiperazin-1-yl)ethyl)-5-phenyl-1H-pyrazolo[3,4-c]pyridazine] |
| ≤ 2000 | FC(F)(F)CCn1nc(-c2ccccc2)c2c(Cl)c(-c3ccccc3)nnc21 [IId, 4-chloro-3,5-diphenyl-1-(3,3,3-trifluoropropyl)pyrazolo[3,4-c]pyridazine] |
| ≤ 2000 | Clc1c(-c2ccccc2)nnc2[nH]nc(C3CC3)c12 [Idd, 4-chloro-3-cyclopropyl-5-phenyl-1H-pyrazolo[3,4-c]pyridazine] |
| 2000 to 5000 | Clc1c(-c2ccccc2)nnc2[nH]nc(Br)c12 [Ibb, 3-bromo-4-chloro-5-phenyl-1H-pyrazolo[3,4-c]pyridazine] |
| ≤ 2000 | Cn1nc(-c2ccccc2)c2c(Cl)c(-c3ccsc3)nnc21 [IIIc, 4-chloro-1-methyl-3-phenyl-5-(3-thienyl)pyrazolo[3,4-c]pyridazine] |
| ≤ 2000 | O=C1CCCN1CCn1nc(-c2cccc(F)c2)c2c(Cl)c(-c3ccccc3)nnc21 [IIr, 1-[2-[4-chloro-3-(3-fluorophenyl)-5-phenyl-pyrazolo[3,4-c]pyridazin-1-yl]ethyl]pyrrolidin-2-one] |
| ≤ 2000 | CN1CCN(CCn2nc(I)c3c(Cl)c(-c4ccccc4)nnc32)CC1 [Ia, 4-Chloro-3-iodo-1-(2-(4-methylpiperazin-1-yl)ethyl)-5-phenyl-1H-pyrazolo[3,4-c]pyridazine] |
| ≤ 2000 | Cc1nn(C)c2nnc(-c3ccccc3)c(Cl)c12 [Compound 22, 4-chloro-1,3-dimethyl-5-phenyl-pyrazolo[3,4-c]pyridazine] |

| EC50 [nM] | SMILES |
| --- | --- |
| ≤ 2000 | Cc1nn(CCN2CCN(C)CC2)c2nnc(-c3ccccc3)c(Cl)c12 [Iv, 4-chloro-3-methyl-1-[2-(4-methylpiperazin-1-yl)ethyl]-5-phenyl-pyrazolo[3,4-c]pyridazine] |
| 5000 to 21000 | CN1CCN(CCn2nc3nnc(-c4ccccc4)c(Cl)c3c2I)CC1 [Compound 20, 4-Chloro-3-iodo-2-(2-(4-methylpiperazin-1-yl)ethyl)-5-phenyl-2H-pyrazolo[3,4-c]pyridazine] |
| 2000 to 5000 | CN1CCN(CCn2nc(-c3ccc(C(F)(F)F)nc3)c3c(Cl)c(-c4ccccc4)nnc32)CC1 [Ih, 4-chloro-1-(2-(4-methylpiperazin-1-yl)ethyl)-5-phenyl-3-(6-(trifluoromethyl)pyridin-3-yl)-1H-pyrazolo[3,4-c]pyridazine] |
| ≤ 2000 | Cc1nn(C)c2nnc(-c3ccccc3)c(F)c12 [Compound 24, 4-fluoro-1,3-dimethyl-5-phenyl-pyrazolo[3,4-c]pyridazine] |
| ≤ 2000 | Clc1c(-c2ccccc2)nnc2c1c(-c1ccccc1)nn2C1CCOCC1 [IIe, 4-chloro-3,5-diphenyl-1-tetrahydropyran-4-yl-pyrazolo[3,4-c]pyridazine] |
| ≤ 2000 | CN1CCN(CCn2nc(-c3cc4ccccc4[nH]3)c3c(Cl)c(-c4ccccc4)nnc32)CC1 [Im, 4-chloro-3-(1H-indol-2-yl)-1-(2-(4-methylpiperazin-1-yl)ethyl)-5-phenyl-1H-pyrazolo[3,4-c]pyridazine] |
| 2000 to 5000 | O=C(Cn1nc(C(F)(F)F)c2c(Cl)c(-c3ccccc3)nnc21)N1CCCC1 [Iaa, 2-[4-chloro-5-phenyl-3-(trifluoromethyl)pyrazolo[3,4-c]pyridazin-1-yl]-1-pyrrolidin-1-yl-ethanone] |
| 2000 to 5000 | O=C(Cn1nc(C2CC2)c2c(Cl)c(-c3ccccc3)nnc21)N1CCCC1 [Iee, 2-(4-chloro-3-cyclopropyl-5-phenyl-pyrazolo[3,4-c]pyridazin-1-yl)-1-pyrrolidin-1-yl-ethanone] |
| ≤ 2000 | CN1CCN(CCn2nc(-c3ccnc(C(F)(F)F)c3)c3c(Cl)c(-c4ccccc4)nnc32)CC1 [Ie, 4-chloro-1-(2-(4-methylpiperazin-1-yl)ethyl)-5-phenyl-3-(2-(trifluoromethyl)pyridin-4-yl)-1H-pyrazolo[3,4-c]pyridazine] |
| ≤ 2000 | CC(=O)CCn1nc(-c2ccccc2)c2c(Cl)c(-c3ccccc3)nnc21 [IIm, 4-(4-chloro-3,5-diphenyl-pyrazolo[3,4-c]pyridazin-1-yl)butan-2-one] |
| 2000 to 5000 | Cn1nc(C2CCCC2)c2c(Cl)c(-c3ccccc3)nnc21 [Compound 27, 4-chloro-3-cyclopentyl-1-methyl-5-phenyl-pyrazolo[3,4-c]pyridazine] |
| ≤ 2000 | CN1CCN(CCn2nc(/C=C/c3ccccc3)c3c(Cl)c(-c4ccccc4)nnc32)CC1 [Ig, (E)-4-chloro-1-(2-(4-methylpiperazin-1-yl)ethyl)-5-phenyl-3-styryl-1H-pyrazolo[3,4-c]pyridazine] |
| ≤ 2000 | Cn1nc(-c2cccnc2)c2c(Cl)c(-c3ccccc3)nnc21 [Compound 26, 4-chloro-1-methyl-5-phenyl-3-(3-pyridyl)pyrazolo[3,4-c]pyridazine] |
| ≤ 2000 | Cc1nn(CCO)c2nnc(-c3ccccc3)c(Cl)c12 [Ihh, 2-(4-chloro-3-methyl-5-phenyl-pyrazolo[3,4-c]pyridazin-1-yl)ethanol] |
| 2000 to 5000 | Cn1nc(C2CC2)c2c(Cl)c(-c3ccccc3)nnc21 [Compound 21, 4-chloro-3-cyclopropyl-1-methyl-5-phenyl-pyrazolo[3,4-c]pyridazine] |
| ≤ 2000 | Cn1nc(-c2ccccc2)c2c(Cl)c(-c3cccnc3)nnc21 [IIId, 4-chloro-1-methyl-3-phenyl-5-(3-pyridyl)pyrazolo[3,4-c]pyridazine] |
